This passage reports AC50, IC50 and EC50 results from ChEMBL document CHEMBL1201862, “PubChem BioAssay data set” (2004).

The source made the active and inactive calls.

The target in assay [1] is Cytochrome P450 2C9 (Homo sapiens, UniProt P11712).
Assay [2] deals with T1, Rac GTPase-activating protein 1 (Homo sapiens, UniProt Q9H0H5).
T1 sequence (Q9H0H5 whole entry): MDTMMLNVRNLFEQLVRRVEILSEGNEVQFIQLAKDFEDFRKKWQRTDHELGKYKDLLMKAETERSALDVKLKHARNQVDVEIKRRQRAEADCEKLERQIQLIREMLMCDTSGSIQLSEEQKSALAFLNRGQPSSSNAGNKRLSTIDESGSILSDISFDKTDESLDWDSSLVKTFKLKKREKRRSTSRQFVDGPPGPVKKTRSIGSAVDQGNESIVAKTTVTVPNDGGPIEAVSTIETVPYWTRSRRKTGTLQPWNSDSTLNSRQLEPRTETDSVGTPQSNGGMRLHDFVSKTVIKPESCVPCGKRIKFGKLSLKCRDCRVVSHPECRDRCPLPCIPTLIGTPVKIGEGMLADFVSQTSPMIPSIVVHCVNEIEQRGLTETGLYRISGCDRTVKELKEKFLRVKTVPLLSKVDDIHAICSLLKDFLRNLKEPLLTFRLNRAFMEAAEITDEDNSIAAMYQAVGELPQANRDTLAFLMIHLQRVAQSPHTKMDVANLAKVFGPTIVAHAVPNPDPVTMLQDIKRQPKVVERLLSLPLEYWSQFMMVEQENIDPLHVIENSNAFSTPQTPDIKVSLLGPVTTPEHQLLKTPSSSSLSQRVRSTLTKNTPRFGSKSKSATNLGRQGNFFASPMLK
Description: blockers of MgcRacGAP-driven Rac1 GTP hydrolysis – biochemical, ADP Hunter fluorescence, primary and confirmatory, confirmation (AID 624330). The format is functional.

Assay [3] can be described thus: Trypanosoma cruzi growth suppression in host cells – NIH3T3 host cells, beta-gal luminescence, confirmation (AID 2044).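 Also: intracellular parasites grown in NIH/3T3 mouse fibroblasts as host cells; luminescent beta-galactosidase reporter signal from transgenic T. cruzi replicating inside host cells; inhibitors lower the luminescence signal.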 The format is functional, cell-based.
Assay [4] can be described thus: NIH3T3 cell viability loss – ATP luminescence, mouse fibroblasts, counter-screen, dose response (AID 2010).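 Also: cells exposed to compound for about 90 hours before reading.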 The format is functional, cell-based.
For assay [5], the target named is T2, Fatty acid synthase (Homo sapiens, UniProt P49327). As to the kind of experiment: inhibition of human FAS-TE enzyme activity – biochemical, endpoint fluorescence intensity, uHTS hits, dose response (AID 624327).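 Also: fluorescence from hydrolysis of an O-methyl fluorescein acyl ester substrate by the enzyme.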 Type of assay: functional.
T2 sequence (P49327 whole entry): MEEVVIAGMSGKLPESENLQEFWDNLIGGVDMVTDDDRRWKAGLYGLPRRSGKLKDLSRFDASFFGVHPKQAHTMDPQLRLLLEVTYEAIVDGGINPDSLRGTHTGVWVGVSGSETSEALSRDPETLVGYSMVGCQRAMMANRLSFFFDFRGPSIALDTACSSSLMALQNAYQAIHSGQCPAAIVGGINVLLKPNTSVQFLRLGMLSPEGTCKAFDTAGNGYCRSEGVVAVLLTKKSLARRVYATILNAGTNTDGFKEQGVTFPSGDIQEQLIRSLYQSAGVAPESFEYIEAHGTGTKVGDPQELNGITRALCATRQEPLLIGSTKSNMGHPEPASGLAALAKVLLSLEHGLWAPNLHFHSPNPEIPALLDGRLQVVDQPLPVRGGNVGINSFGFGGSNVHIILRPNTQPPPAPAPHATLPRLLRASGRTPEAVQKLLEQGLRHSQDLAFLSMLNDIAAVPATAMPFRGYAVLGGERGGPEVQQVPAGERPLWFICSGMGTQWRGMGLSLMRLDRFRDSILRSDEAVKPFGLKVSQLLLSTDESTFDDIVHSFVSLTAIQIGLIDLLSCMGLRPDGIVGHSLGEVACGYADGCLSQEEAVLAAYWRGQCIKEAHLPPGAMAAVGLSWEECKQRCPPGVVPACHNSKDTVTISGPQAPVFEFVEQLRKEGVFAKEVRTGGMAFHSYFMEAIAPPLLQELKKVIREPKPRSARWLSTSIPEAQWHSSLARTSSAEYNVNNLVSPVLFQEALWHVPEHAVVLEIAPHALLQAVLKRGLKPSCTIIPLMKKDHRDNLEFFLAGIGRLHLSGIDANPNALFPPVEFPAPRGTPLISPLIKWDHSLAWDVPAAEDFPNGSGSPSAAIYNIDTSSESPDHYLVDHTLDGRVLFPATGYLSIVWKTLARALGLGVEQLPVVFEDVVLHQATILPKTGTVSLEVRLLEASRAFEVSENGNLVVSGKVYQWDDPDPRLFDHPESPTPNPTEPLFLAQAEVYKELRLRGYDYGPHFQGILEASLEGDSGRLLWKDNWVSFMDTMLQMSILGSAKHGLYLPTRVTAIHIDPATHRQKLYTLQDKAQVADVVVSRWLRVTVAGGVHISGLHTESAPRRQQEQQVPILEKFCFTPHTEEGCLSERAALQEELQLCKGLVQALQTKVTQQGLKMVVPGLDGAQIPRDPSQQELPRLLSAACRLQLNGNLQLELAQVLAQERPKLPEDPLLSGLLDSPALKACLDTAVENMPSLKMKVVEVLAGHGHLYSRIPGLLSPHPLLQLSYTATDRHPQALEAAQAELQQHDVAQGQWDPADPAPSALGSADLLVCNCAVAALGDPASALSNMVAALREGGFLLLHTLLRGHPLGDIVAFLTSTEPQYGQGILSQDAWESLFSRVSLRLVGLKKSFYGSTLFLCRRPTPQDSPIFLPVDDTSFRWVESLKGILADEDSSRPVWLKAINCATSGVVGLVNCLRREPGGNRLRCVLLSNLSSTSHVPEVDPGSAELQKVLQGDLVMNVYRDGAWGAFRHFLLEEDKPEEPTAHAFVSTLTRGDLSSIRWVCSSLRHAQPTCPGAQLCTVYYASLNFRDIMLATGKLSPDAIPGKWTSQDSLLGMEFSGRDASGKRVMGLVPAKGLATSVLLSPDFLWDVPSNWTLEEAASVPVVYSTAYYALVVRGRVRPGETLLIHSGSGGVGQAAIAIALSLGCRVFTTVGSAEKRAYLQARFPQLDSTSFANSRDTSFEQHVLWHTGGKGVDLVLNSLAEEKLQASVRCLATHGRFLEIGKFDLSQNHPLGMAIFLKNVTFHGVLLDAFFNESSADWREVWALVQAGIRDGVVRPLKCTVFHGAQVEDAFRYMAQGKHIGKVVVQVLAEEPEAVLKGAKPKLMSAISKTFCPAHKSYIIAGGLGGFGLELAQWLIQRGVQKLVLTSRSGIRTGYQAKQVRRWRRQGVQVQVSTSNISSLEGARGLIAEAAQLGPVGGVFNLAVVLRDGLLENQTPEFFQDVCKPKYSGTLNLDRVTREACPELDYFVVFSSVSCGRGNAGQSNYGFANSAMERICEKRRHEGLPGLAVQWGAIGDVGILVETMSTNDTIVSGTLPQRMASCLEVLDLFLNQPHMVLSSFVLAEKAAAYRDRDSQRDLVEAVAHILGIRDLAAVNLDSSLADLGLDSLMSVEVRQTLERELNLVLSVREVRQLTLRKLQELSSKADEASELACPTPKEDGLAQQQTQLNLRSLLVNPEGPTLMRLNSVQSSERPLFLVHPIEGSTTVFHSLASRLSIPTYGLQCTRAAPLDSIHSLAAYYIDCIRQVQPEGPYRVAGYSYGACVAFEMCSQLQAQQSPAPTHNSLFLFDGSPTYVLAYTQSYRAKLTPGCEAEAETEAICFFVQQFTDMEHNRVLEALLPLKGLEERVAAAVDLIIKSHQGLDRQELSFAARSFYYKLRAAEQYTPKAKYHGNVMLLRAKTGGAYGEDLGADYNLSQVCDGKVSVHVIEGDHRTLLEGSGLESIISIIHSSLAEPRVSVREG
Assay [6] deals with T2, Fatty acid synthase. As to the kind of experiment: inhibition of human FAS-TE enzyme activity – biochemical, kinetic fluorescence intensity, dose response (AID 624326).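 Also: rate of fluorescence rise from hydrolysis of a fluorogenic O-methyl fluorescein ester substrate.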 The format is functional.
Assay [7] addresses Paired box protein Pax-8 (Homo sapiens, UniProt Q06710). Description: PAX8 transcriptional activity inhibition in RMG-I – RMG-I cells, luciferase, cherry-pick, dose response (AID 687027).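 Also: luciferase reporter driven by Pax8 target thyroperoxidase promoter measured by SteadyGlo luminescence.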 The format is functional, cell-based.
The target in assay [8] is Cytochrome P450 2D6 (Homo sapiens, UniProt P10635).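 Also: CYP2D6 member of a cytochrome P450 panel assay.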
Cytochrome P450 2D6, sequence (P10635 whole entry): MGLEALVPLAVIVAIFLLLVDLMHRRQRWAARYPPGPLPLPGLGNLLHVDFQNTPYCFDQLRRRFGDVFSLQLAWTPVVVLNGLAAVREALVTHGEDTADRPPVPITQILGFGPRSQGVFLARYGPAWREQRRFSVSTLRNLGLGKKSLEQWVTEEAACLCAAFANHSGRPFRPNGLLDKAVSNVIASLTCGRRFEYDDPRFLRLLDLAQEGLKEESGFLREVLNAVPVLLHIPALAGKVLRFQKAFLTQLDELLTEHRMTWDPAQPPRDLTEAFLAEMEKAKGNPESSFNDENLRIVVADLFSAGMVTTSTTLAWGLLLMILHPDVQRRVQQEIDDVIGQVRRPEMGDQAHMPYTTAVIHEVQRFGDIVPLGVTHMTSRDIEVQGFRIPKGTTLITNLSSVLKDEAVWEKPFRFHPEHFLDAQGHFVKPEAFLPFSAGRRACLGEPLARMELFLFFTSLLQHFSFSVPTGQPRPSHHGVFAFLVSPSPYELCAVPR
Assay [9] addresses Cytochrome P450 2C19 (Homo sapiens, UniProt P33261). Description: Cytochrome panel assay with activity outcomes. Panel member name: p450-cyp2c19 Compounds with AC50 equal or less than 10 uM are considered active. Type of assay: functional. Particulars: read-out: AC50.
For assay [10], the target named is T3, Replicative DNA helicase DnaB (Mycobacterium tuberculosis, UniProt P9WMR3).
T3 sequence (P9WMR3 whole entry): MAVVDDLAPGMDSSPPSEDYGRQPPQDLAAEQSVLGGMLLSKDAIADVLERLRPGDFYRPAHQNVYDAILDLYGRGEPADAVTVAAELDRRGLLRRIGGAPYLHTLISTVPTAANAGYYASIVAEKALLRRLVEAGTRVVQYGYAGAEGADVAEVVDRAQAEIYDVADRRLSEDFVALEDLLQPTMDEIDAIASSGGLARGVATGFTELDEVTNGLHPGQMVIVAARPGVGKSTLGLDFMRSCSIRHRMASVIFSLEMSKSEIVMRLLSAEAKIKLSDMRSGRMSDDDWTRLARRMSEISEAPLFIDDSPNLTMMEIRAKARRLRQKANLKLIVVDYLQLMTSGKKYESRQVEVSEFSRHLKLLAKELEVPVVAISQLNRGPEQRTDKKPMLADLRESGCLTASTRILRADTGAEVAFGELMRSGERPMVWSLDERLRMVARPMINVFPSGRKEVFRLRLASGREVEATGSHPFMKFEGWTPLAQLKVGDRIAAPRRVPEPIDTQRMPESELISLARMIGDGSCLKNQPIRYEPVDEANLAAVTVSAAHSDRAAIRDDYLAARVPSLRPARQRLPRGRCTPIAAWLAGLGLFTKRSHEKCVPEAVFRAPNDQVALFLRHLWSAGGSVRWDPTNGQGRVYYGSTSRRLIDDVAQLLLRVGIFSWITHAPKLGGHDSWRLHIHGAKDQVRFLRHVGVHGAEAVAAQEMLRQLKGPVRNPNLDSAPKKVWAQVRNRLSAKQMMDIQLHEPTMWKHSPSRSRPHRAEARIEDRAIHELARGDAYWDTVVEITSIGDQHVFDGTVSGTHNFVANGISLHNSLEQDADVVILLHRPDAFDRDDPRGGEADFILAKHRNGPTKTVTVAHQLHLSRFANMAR
As to the kind of experiment: DnaB intein splicing inhibitors, dose response, biochemical, cell-free fluorescence (AID 449749). Type of assay: functional.

Assay [11] deals with T4, Protein RecA (Mycobacterium tuberculosis, UniProt P9WHJ3).
T4 sequence (P9WHJ3 whole entry): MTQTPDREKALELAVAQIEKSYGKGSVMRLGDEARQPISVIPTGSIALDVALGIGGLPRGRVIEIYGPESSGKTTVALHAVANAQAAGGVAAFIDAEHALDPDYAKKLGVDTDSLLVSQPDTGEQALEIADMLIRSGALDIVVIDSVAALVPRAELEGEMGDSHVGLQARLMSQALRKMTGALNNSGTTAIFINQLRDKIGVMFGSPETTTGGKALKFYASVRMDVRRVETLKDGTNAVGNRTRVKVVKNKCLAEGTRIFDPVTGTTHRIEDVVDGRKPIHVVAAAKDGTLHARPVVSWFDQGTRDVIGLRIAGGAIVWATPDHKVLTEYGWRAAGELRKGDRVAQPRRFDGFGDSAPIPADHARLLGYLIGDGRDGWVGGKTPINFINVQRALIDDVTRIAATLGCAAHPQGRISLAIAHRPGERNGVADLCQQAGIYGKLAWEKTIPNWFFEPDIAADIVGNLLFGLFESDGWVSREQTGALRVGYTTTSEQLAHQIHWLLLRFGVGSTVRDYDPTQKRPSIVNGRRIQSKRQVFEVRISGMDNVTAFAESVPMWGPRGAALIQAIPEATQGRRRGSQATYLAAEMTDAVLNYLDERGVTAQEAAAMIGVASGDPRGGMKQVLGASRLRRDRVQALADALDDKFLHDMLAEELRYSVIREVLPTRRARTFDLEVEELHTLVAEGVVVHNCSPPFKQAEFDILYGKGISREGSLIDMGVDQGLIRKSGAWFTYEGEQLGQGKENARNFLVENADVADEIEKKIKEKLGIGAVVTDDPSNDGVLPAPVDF
As to the kind of experiment: Fluorescence Cell-Free Homogeneous Dose Retest to Identify Inhibitors of RecA-Intein Splicing Activity. [Related pubchem assays (depositor defined):AID2097, AID2223, AID489010, AID492950]. Type of assay: functional.

Cytochrome P450 2C9, sequence (P11712 whole entry): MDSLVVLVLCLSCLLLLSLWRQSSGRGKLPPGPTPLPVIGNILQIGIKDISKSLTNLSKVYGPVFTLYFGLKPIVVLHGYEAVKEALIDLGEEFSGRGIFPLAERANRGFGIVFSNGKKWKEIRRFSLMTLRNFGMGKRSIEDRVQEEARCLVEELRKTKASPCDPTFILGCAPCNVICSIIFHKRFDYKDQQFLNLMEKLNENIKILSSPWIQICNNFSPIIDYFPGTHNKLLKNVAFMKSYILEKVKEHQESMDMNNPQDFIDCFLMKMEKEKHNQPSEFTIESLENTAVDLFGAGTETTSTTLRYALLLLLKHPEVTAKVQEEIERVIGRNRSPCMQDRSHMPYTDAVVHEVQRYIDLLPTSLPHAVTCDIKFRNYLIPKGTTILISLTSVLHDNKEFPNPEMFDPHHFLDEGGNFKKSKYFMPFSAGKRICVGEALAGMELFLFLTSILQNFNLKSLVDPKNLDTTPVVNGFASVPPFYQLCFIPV
Paired box protein Pax-8, sequence (Q06710 whole entry): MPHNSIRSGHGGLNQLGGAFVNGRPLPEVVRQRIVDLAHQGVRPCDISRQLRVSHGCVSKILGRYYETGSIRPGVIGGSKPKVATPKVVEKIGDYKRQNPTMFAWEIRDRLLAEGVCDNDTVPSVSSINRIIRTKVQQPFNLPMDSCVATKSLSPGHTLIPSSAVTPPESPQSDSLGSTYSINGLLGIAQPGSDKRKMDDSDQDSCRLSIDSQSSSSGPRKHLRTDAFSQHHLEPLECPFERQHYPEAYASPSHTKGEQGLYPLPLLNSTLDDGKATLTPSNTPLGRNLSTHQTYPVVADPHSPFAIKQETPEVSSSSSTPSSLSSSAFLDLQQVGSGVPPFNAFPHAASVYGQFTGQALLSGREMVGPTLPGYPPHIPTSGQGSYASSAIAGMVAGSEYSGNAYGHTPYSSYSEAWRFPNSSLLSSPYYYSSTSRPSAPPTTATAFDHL
Cytochrome P450 2C19, sequence (P33261 whole entry): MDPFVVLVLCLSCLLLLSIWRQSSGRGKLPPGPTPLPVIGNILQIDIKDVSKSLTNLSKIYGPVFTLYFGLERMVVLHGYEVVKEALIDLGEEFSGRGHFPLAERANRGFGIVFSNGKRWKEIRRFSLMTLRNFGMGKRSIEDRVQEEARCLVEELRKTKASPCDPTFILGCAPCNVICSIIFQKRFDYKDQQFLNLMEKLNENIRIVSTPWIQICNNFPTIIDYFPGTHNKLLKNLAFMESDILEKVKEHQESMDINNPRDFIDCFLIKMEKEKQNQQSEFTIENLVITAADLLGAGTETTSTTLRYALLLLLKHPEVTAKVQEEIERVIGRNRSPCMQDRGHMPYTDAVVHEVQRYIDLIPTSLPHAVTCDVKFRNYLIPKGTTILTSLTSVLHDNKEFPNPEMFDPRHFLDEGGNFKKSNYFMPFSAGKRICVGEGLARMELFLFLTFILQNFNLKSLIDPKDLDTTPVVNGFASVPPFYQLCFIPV

A word on the AC50: it is the midpoint of the concentration-response curve, whichever way the signal moves. `CN1CCN(c2ncc3nc(CCc4ccccc4)c(=O)n(Cc4ccc(F)cc4)c3n2)CC1`: the concentration at half-maximal activity (AC50) in assay [1] was 12.6 µM (inconclusive).

As a reminder, the IC50 is the midpoint of a concentration-inhibition curve. With `CN(C)/C=C1\NC(=S)N(c2ccccc2)C1=O`, in assay [2], the 50% inhibitory concentration (IC50) was 65.4 µM (active).

For orientation: EC50 means the concentration that produces a half-maximal response. Take `CCN1CCN(CCCOc2ccc(Cl)cc2Br)CC1`: the figures for the concentration giving a half-maximal response (EC50) in assay [3] and in assay [4] were 1.6 µM (active) and 32.5 µM (active), respectively. The IC50 in assay [2] was 68.8 µM (active).

Turning to `O=[N+]([O-])c1ccc(SNc2ccccc2)c([N+](=O)[O-])c1`, the IC50 in assay [5] was 10.4 µM (active); in assay [6], 9.38 µM (active).

For `Cc1c(NC(=O)C2CCN(S(=O)(=O)c3ccc(Cl)cc3)CC2)c(=O)n(-c2ccccc2)n1C`, in assay [1], the concentration at half-maximal activity (AC50) is 14.1 µM (inconclusive).

Regarding `C[C@H](CO)N1C[C@H](C)[C@@H](CN(C)Cc2ccc(Cl)c(Cl)c2)OCCCC[C@H](C)Oc2ccc(NC(=O)Nc3ccccc3)cc2C1=O`, the AC50 in assay [7] was 8.65 µM (active).

As for `O=C(CN1CCN(c2ccc(O)cc2)CC1)Nc1ccc2c(c1)OCCCO2`, the half-inhibitory concentration (IC50) in assay [2] is 49.7 µM (active).

Take `CCn1c(-c2ccccc2)cs/c1=N\c1ccc(O)cc1`: in assay [2], the 50% inhibitory concentration (IC50) was 31.7 µM (active).

Regarding `CCn1cc(C(=O)N/N=C(/C)c2ccc(F)cc2)c(=O)c2cc(F)c(N3CCCC3)cc21`, in [1], the AC50 was 10 µM (inconclusive).

On to `O=C(NCCCc1ccccc1)c1ccc([N+](=O)[O-])cc1Cl`, for which the half-inhibitory concentration (IC50) in assay [5] is 1.25 µM (active); in [6] it was 1.31 µM (active).

`O=C(Nc1ccc(Cc2ccncc2)cc1)c1ccc(Cl)c([N+](=O)[O-])c1`: the IC50 is 10.2 µM (active) in assay [5] and 10.9 µM (active) in assay [6].

Turning to `COc1ccccc1NC(=O)c1ccccc1S(=O)(=O)c1ccc([N+](=O)[O-])cc1`, the concentration for half-maximal inhibition (IC50) in assay [5] is 14.9 µM (active); in [6], 8.19 µM (active).

As for `CN1CCN(/N=C/c2nc(-c3ccc(Cl)cc3)n3ccccc23)CC1`, in assay [2], the half-inhibitory concentration (IC50) was 27.1 µM (active).

As to `CCCN(/C=N/c1sc2c(c1C#N)CCCCC2)CCC`, the half-maximal activity concentration (AC50) in [8] was 15.8 µM (inconclusive); in [1] it was 12.6 µM (inconclusive).

For `Cc1ccc(C)c(CN2C(=O)C3CCCN3c3ccc(S(=O)(=O)N4CCOCC4)cc32)c1` (stereo unspecified), the AC50 is 6.31 µM (inconclusive) in [9] and 14.1 µM (inconclusive) in [1].

Regarding `Cc1cccc(NC(=O)c2cc([N+](=O)[O-])ccc2N2CCN(C)CC2)c1`, the figures for the IC50 in [5] and in assay [6] were 8.93 µM (active) and 11.3 µM (active), respectively.

As for `CCN1CCN(CCCOc2ccccc2-c2ccccc2)CC1`, the IC50 in [2] is 96.9 µM (active).

With `Nc1nn2c(-c3ccccc3)cc(O)nc2c1N=Nc1ccc(O)cc1`, the AC50 in assay [10] was 3.91 µM (active). Besides, in assay [11], the concentration giving a half-maximal response (EC50) was 1.88 µM (active). Besides, the half-maximal inhibitory concentration (IC50) in assay [2] was 60.1 µM (active).

For the molecule `COc1cc(/C=N/NC(=O)c2cc[n+]([O-])cc2)ccc1O`, the IC50 in assay [2] is 32.7 µM (active).

Consider `O=C(N/N=C/c1coc2ccc(Cl)cc2c1=O)c1ccc(O)cc1`, for which the AC50 in assay [10] was > 380 µM (inactive). The EC50 in assay [11] is 16.1 µM (active). The IC50 is 6.64 µM (active) in assay [5] and 4.84 µM (active) in assay [6].

Consider `COc1ccc(NC(=O)CN(c2ccc([N+](=O)[O-])cc2)S(=O)(=O)c2ccccc2)c(OC)c1`, for which the concentration for half-maximal inhibition (IC50) in assay [5] is 4.43 µM (active); in [6], 5.78 µM (active).

Take `Cc1c(Br)c([N+](=O)[O-])nn1CC(=O)Nc1ccc(C(C)C)cc1`: the 50% inhibitory concentration (IC50) in assay [5] was 3.18 µM (active); in assay [6], 6.92 µM (active).

Take `Nc1nc2c(ncn2[C@@H]2O[C@H](CO)[C@@H](O)[C@H]2O)c(=S)[nH]1` [THIOGUANOSINE]: the AC50 in assay [7] is 1.16 µM (active).

For the molecule `CC(C)(C)OC(=O)NCc1ccc(CNC(=O)c2[nH]cnc2C(=O)NCC(=O)OCc2ccccc2)cc1`, the concentration for half-maximal inhibition (IC50) in assay [5] was 6.98 µM (active); in [6], 4.49 µM (active).
